Reference: US20050130890A1, “Amyloid beta is a ligand for FPR class receptors” (priority 2001, published 2005)

Tests used:
FPRL1 [1] = biological target: T1, FPRL1 (Homo sapiens, UniProt P25090); assay: FPRL1 internalization in FPRL1/293 cells, fluorescence confocal microscopy; assay type: cell-based
T1 construct: expressed in transfected cells; host or cells: HEK 293
T1 sequence (P25090 1-351): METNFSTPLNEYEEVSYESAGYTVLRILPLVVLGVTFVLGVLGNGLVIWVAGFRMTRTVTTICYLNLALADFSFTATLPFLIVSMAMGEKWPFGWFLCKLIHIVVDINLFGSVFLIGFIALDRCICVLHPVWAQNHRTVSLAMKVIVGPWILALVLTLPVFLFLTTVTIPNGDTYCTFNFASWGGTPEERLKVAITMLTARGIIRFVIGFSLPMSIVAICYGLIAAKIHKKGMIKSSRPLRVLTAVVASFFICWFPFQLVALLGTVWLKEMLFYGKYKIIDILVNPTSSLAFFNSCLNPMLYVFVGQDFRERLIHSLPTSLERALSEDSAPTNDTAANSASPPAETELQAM
Description: (§1) Human peripheral blood monocytes (PBM) were isolated from Buffy coats (Transfusion Medicine Department, NIH Clinical Center, Bethesda, Md.) by using iso-osmotic Percoll gradient. The purity of cell preparations by morphology was >90%. PBM were further differentiated to macrophages by culturing the cells in RPMI 1640 medium containing 0.1% bovine serum albumin, 0.01M HEPES (pH 7.4), and 20 ng/ml monocyte colony stimulating factor (MCSF, Pepro Tech, Rocky Hill, N.J.). The cells were plated on 4-well chamber slides (Nalge Nunc International, Rochester, N.Y.) at a density of 1×10^5 cells/well. HEK293 cells genetically engineered to express FPRL1 cDNA (FPRL1/293 cells) were kindly provided by Dr. P. M. Murphy (National Institute of Allergy and Infectious Diseases, NIH). FPRL1/293 cells were suspended in DMEM supplemented with 10% FBS (Hyclone, Logan, Utah), 1 mM glutamine (Gibco-BRL, Grand Island, N.Y.), and 800 μg/ml geneticin (G418, Gibco-BRL). The cells were also plated on 4-well chamber slides at a density of 2×10^5 cells/well.
Fluorescence confocal microscope. Human macrophages or FPRL1/293 cells grown on chamber slides were treated with FPRL1 agonists for different periods at 37° C. The cells were fixed in 4% paraformaldehyde for 10 min at room temperature. Slides were washed with PBS and incubated with 5% normal goat serum (Sigma) in PBS, 0.05% Tween-20 (PBS-T-NGS), for 1 h to block nonspecific binding sites and for permeabilization. The anti-Aβ42 and anti-FPRL1 antibodies were applied and the slides were incubated for 1 h at room temperature. […] The slides were mounted with an anti-fade, water-based mounting medium with 4,6-diamidino-2-phenylindole (DAPI; Vector Lab, Burlingame, Calif.) and analyzed under a laser scanning confocal fluorescence microscope (Leica TCS-4D DMIRBE, Heidelberg, Germany). Excitation wavelengths of 365 (for DAPI), 488 (for FITC), and 568 (for rhodamine) nm were used to generate fluorescence emission in blue, green, and red respectively. […]

FPRL1 [2] = biological target: T1, FPRL1; assay: Aβ42/FPRL1 internalization in human macrophages, fluorescence confocal microscopy; assay type: cell-based; details: 30 min incubation at 37° C.
Description: as §1, with “FPRL1/293 cells were suspended in DMEM supplemented with 10% FBS (Hyclone, Logan, Utah), 1 mM glutamine (Gibco-BRL, Grand Island, N.Y.), and 800 μg/ml geneticin (G418, Gibco-BRL). The cells were also plated on 4-well chamber slides at a density of 2×10^5 cells/well.” left out
Fluorescence confocal microscope. […] The slides were mounted with an anti-fade, water-based mounting medium with 4,6-diamidino-2-phenylindole (DAPI; Vector Lab, Burlingame, Calif.) and analyzed under a laser scanning confocal fluorescence microscope (Leica TCS-4D DMIRBE, Heidelberg, Germany). Excitation wavelengths of 365 (for DAPI), 488 (for FITC), and 568 (for rhodamine) nm were used to generate fluorescence emission in blue, green, and red respectively. […]

FPRL1 [3] = biological target: T1, FPRL1; assay: Chemotaxis of FPRL1/293 cells; assay type: cell-based
From the text: (§2) Reagents and cells. Aβ peptide (Aβ42) and the peptide with reversed sequence (Aβ42-1) were purchased from California Peptide Research (Napa, Calif.). All peptides were examined for endotoxin contamination and were negative at highest concentrations used in the study. Human peripheral blood monocytes were isolated from buffy coats (National Institutes of Health Clinical Center, Bethesda, Md.) enriched for mononuclear cells by using iso-osmotic Percoll gradient. The purity of the cell preparations was examined by morphology and was >90%. […]
(§3) Chemotaxis assays and measurement of calcium mobilization. […] The results were expressed as the mean number (±SD) of migrated cells in three high-powered fields in three replicate samples. […] Ca^+ mobilization was measured by stimulating fura-2 AM-loaded human monocytes or receptor-transfected cells with various agents (Deng X. et al. 1999 Blood 94:1165-1673; Su S. B. et al. 1999 J Exp Med 189:395-402) and recording the ratio of fluorescence at 340 and 380 nm in a luminescence spectrometer with FL WinLab program (Perkin-Elmer, Beaconsfield, UK).

human monocytes [4] = assay: Chemotaxis (migration) of human monocytes, 48-well chamber; assay type: cell-based
From the text: (§4) Reagents and cells. Aβ peptide (Aβ42) and the peptide with reversed sequence (Aβ42-1) were purchased from California Peptide Research (Napa, Calif.). All peptides were examined for endotoxin contamination and were negative at highest concentrations used in the study. Human peripheral blood monocytes were isolated from buffy coats (National Institutes of Health Clinical Center, Bethesda, Md.) enriched for mononuclear cells by using iso-osmotic Percoll gradient. The purity of the cell preparations was examined by morphology and was >90%. Rat basophilic leukemia cell line (RBL-2H3) transfected with epitope-tagged N-formylpeptide receptor (FPR) (designated ETFR) was a kind gift of Dr. R. Snyderman (Duke University, Durham, N.C.). cDNA cloning and establishment of FPRL1-transfected human embryonic kidney (HEK) 293 cells (FPRL1/293) were described previously (Gao J. L. & Murphy P. M. 1993 J Biol Chem 268:[…]). All the transfected cells were maintained in culture media as described (Su S. B. et al. 1999 J Exp Med 189:395-402).
(§5) Chemotaxis assays and measurement of calcium mobilization. Chemotaxis assays were performed using 48-well chemotaxis chambers (Deng X. et al. 1999 Blood 94:1165-1673). The results were expressed as the mean number (±SD) of migrated cells in three high-powered fields in three replicate samples. Chemotaxis index, which represented the fold increase in the number of cells migrated in response to chemoattractants over the cell response to control medium, also was used. Ca^+ mobilization was measured by stimulating fura-2 AM-loaded human monocytes or receptor-transfected cells with various agents (Deng X. et al. 1999 Blood 94:1165-1673; Su S. B. et al. 1999 J Exp Med 189:395-402) and recording the ratio of fluorescence at 340 and 380 nm in a luminescence spectrometer with FL WinLab program (Perkin-Elmer, Beaconsfield, UK).

macrophages [5] = assay: Congo red histochemistry of macrophages (fibril formation); assay type: cell-based, human
Description: Congo red histochemistry. Cells on chamber slides were fixed with 4% paraformaldehyde and stained with hematoxylin for 2 min at room temperature. After 20 min incubation in a saturated NaCl solution containing 80% ethanol and 0.1% NaOH, the slides were reacted for 20 min with 0.2% Congo red. Destaining and dehydration were completed by washing the slides sequentially in 95% ethanol and 100% ethanol, followed by xylene. Coverslips were applied using Permount and the slides were viewed under light microscopy.

human monocytes [6] = assay: Ca2+ mobilization in fura-2 loaded human monocytes; assay type: cell-based
From the text: as §4, §5

mouse neutrophils [7] = details: neutrophils from wild type mice, cited from earlier work
mouse neutrophils [8] = assay: Superoxide production in mouse neutrophils (Diogenes chemiluminescence); assay type: cell-based
Description: The cell population was consistently composed of >90% neutrophils, as determined by light microscopy of DiffQuick-stained cytospins. Thus, hereafter we will refer to this cell preparation as neutrophils. Superoxide Production. […] Then a mixture of the superoxide-specific chemiluminescence indicator reagent Diogenes (National Diagnostics, Atlanta, Ga.) was added to the cells (50% of total reaction volume) with appropriate stimuli or vehicle control, and superoxide dismutase-inhibitable chemiluminescence was measured in a luminometer (Labsystems Luminoskan; Helsinki, Finland). […] For sequential stimulation experiments, 5×10^4 FPR −/− neutrophils were distributed into microcentrifuge tubes, and test substances were added. The mixture was then immediately transferred to a chemiluminescence plate. After incubation at 37° C. for 8 min (when fMLF was the first stimulus) or 9 min (when Aβ was the first stimulus), Diogenes reagent plus the final stimulus was added, and the activity was monitored for 10 min. […] Each condition was tested in triplicate, and the mean of the mean number (grand mean) of superoxide dismutase-inhibitable relative light units throughout the duration of the assay and the corresponding standard errors of grand means were calculated. […]

FPRL1 [9] = biological target: T1, FPRL1; assay: Ca2+ mobilization in FPRL1/293 cells; assay type: cell-based
From the text: as §2, §3

FPRL1/293 cells = assay: Apoptosis of FPRL1/293 cells (annexin-V-FITC/PI flow cytometry); assay type: cell-based, human; details: 48 h; 10 μM Aβ42 or 1 μM W pep
Description: (§6) Detection of apoptosis. Apoptotic cells were detected by double labeling with annexin-V-FITC and propidium iodide (P1). Annexin-V binds to phosphatidylserine residues, which are translocated from the inner to the outer leaflet of the plasma membrane during the early stages of apoptosis (Koopman G. et al. 1994 Blood 84:1415-1420; Martin S. J. et al. 1995 J Exp Med 182:1545-1556). Necrotic cells were distinguished from annexin-V-positive cells by counterstaining with PI (final concentration 1 μg/ml) (Heidenreich S. et al. 1997 J Immunol 159:3178-3188; Mangan D. F. et al. 1991 J Immunol 146:1541-1546. Apoptotic cells were labeled by using an annexin-V kit according to manufacturer's instructions (Santa Cruz Biotechnology, Santa Cruz, Calif.) and analyzed by flow cytometry.

macrophages [10] = assay: Apoptosis of macrophages (annexin-V-FITC/PI flow cytometry); assay type: cell-based, human; details: 48 h; 10 μM Aβ42 or 1 μM W pep
Description: as §6

[11] = biological target: mouse N-formylpeptide receptor 2 (FPR2), on transfected HEK 293 cells or endogenous on mouse neutrophils and N9 microglial cells (mouse) (UniProt O88536); assay: cell-based or functional assay
mouse N-formylpeptide receptor 2 (FPR2), on transfected HEK 293 cells or endogenous on mouse neutrophils and N9 microglial cells (mouse), sequence (O88536 whole entry): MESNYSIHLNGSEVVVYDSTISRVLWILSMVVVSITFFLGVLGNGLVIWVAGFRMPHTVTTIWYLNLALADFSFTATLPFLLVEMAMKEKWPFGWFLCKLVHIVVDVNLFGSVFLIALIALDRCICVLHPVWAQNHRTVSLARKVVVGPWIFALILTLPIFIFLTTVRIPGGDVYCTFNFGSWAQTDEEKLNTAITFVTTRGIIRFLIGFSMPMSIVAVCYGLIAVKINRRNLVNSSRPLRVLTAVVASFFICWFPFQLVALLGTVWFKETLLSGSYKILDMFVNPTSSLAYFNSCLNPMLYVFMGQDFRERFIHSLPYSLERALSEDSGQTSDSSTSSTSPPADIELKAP

FPR = biological target: T2, FPR (Homo sapiens, UniProt P21462); assay: Ca2+ mobilization in ETFR cells (RBL-2H3 transfected with epitope-tagged FPR); assay type: cell-based
T2 construct: expressed in transfected cells; host or cells: RBL-2H3 (rat basophilic leukemia)
T2 sequence (P21462 1-350): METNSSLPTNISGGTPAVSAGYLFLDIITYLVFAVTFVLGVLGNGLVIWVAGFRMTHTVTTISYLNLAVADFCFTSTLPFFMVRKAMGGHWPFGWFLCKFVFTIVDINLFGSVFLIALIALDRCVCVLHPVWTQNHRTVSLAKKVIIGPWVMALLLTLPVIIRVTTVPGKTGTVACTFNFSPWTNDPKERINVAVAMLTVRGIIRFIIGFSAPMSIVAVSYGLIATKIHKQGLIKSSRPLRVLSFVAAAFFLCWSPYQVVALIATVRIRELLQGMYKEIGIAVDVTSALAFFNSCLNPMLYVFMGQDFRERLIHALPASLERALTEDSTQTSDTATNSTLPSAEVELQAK
From the text: as §2, §3

Molecule: COc1cc2c(c(OC)c1OC)-c1ccc(OC)c(=O)cc1[C@@H](NC(C)=O)CC2 [colchicine]
- effect on internalization of Aβ42/FPRL1 complexes (FPRL1 [1]; 30 min incubation at 37° C.): failed to internalize
- effect on internalization of Aβ42/FPRL1 complexes (FPRL1 [2]): failed to internalize
- inhibition of Aβ42-induced chemotaxis (FPRL1 [3]): potent inhibitor of Aβ42-induced chemotaxis
- inhibition of Aβ42-induced chemotaxis (human monocytes [4]; monocytes): potent inhibitor of Aβ42-induced chemotaxis
- effect on Congo red staining of macrophages incubated with Aβ42 (macrophages [5]; 48 h incubation with Aβ42): not significantly stained with Congo red

Molecule: fucoidan
- Ca2+ mobilization in human monocytes (human monocytes [6]): did not induce Ca^2+ mobilization
- effect of prior stimulation on subsequent Ca2+ flux response of monocytes to Aβ42 (desensitization) (human monocytes [6]): did not affect monocyte response to subsequent stimulation with Aβ42

Molecule: CSCC[C@H](NC=O)C(=O)N[C@@H](CC(C)C)C(=O)N[C@@H](Cc1ccccc1)C(=O)O [fMLF, formyl-methionyl-leucyl-phenylalanine]
- optimum of second peak of chemotaxis dose-response curve (mouse neutrophils [7]): 10 µM
- optimum of first peak of chemotaxis dose-response curve (mouse neutrophils [7]; peak due to FPR): ~500 nM
- difference of EC50 of superoxide generation, FPR −/− versus FPR+/+ neutrophils (mouse neutrophils [8]): 10 fold
- effect of pretreatment on superoxide response to 10 μM Aβ (mouse neutrophils [8]; FPR −/− neutrophils, pretreated with 5 μM fMLF vs vehicle): markedly attenuated
- desensitization of Aβ42-induced Ca2+ flux in FPRL1/293 cells (FPRL1 [9]; prior stimulation): desensitized
- effect of prior stimulation on subsequent Ca2+ flux response of monocytes to Aβ42 (desensitization) (human monocytes [6]): clearly inhibited the subsequent Ca^2+ flux response to Aβ42

Molecule: WKYMVm [W pep]
- time to maximal FPRL1 internalization (FPRL1 [1]; 37° C.): 15 to 30 min
- time until FPRL1 is back on the cell surface after removal of agonist (receptor recycling) (FPRL1 [1]; agonist removed after 30 min): 2 h
- Congo red positive fibrils (macrophages [5]; incubation 24 h to 48 h): did not form Congo red positive fibrils
- apoptosis (FPRL1/293 cells): did not increase the apoptosis
- apoptosis (macrophages [10]): did not increase the apoptosis

Molecule: bacterial chemotactic peptide formyl-methionyl-leucyl-phenylalanine (fMLF)
- superoxide generation in neutrophils, EC50 in FPR -/- against FPR +/+ cells [11]: 10 fold

Molecule: Aβ42 “aged”: Aβ42 aged at 37° C., tested as the aggregated form
- induction of monocyte migration (human monocytes [4]): lower potency than freshly dissolved peptide

Molecule: GlyBSA: Glycated bovine albumin, a reported ligand for RAGE
- Ca2+ mobilization in ETFR cells (FPR): stimulated Ca^2+ mobilization
- Ca2+ mobilization in FPRL1/293 cells (FPRL1 [9]): stimulated Ca^2+ mobilization
- Ca2+ mobilization in human monocytes (human monocytes [6]): potent inducer of Ca^2+ mobilization
- effect of prior stimulation on subsequent Ca2+ flux response of monocytes to Aβ42 (desensitization) (human monocytes [6]): able to cross-desensitize the cell response to Aβ42
